Test results from patent publication US10421743B2, “Tetrahydroisoquinolines as PRMT5 inhibitors” (CTXT PTY LTD, priority 2016, dated 2019).
pEC50: −log10 of the molar value. Like-named read-outs stand apart in the source and are kept apart here.

Key:
[1] = target: Full-length (FL)-PRMT5-MEP50 enzyme complex (Homo sapiens (Human), UniProt O14744); test: PRMT5-MEP50 Enzyme Methylation Assay (SAMDI); format: biochemical; settings: 0.5 nM PRMT5-MEP50, 75 nM biotinylated H4R3(Me1) peptide, 15 μM SAM, 150 minutes at 37° C.
Experimental: PRMT5-MEP50 Enzyme Methylation Assay
PRMT5/MEP50 biochemical assay is a direct measurement of the methylation activity of the enzyme complex on a short peptide substrate derived from the N-terminus of H4 histone. Methylation experiment is performed with recombinant protein. The assessment of inhibitory effect (IC50) of small molecules is measured by the effectiveness of the compounds to inhibit this reaction.
In this assay, the potency (IC50) of each compound was determined from a twenty-point (1:2 serial dilution; top compound concentration of 100000 nM) titration curve using the following outlined procedure. To each well of a white ProxiPlus 384 well-plate, 100 nL of compound (1% DMSO in final assay volume of 10 μL) was dispensed, followed by the addition of 8 μL of 1× assay buffer (50 mM Bicine pH 8.0, 1 mM DTT, 0.004% Tween20, 0.01% BSA) containing 0.5 nM of Full-length (FL)-PRMT5-MEP50 enzyme complex (recombinant proteins from baculovirus-transfected Sf21 cells: FL-PRMT5; MW=[…] and FL-MEP50; MW=38614). Plates were sealed and placed in a 37° C. humidified chamber for 30 minutes pre-incubation with compounds. Subsequently, each reaction was initiated by the addition of 2 μL 1× assay buffer containing 75 nM biotinylated H4R3(Me1) peptide, and 15 μM S-(5′-Adenosyl)-L-Methionine Chloride (SAM). The final reaction in each well of 10 μL consists of 0.5 nM PRMT5-MEP50,75 nM biotinylated-peptide, and 15 μM SAM. Methylation reactions were allowed to proceed for 150 minutes in a sealed plate at 37° C. Reactions were immediately quenched by the addition of 1 μL of 10% formic acid. Plates were then frozen and shipped to SAMDI™ Tech Inc. to determine the percent conversion from […]. IC50 values were determined by 7 parameters biphasic fit model plotting the percent product conversion vs. (Log10) compound concentrations.

[2] = test system: PRMT5 (symmetric dimethylation of arginine (SDMA) in MCF-7 cells); test: PRMT5 Cell Target Engagement (TE) Assay (SDMA, high content imaging); format: cell-based; settings: Homo sapiens, MCF7, 72 h, treated for 3 days, top compound concentration of 10000 nM
From the text: PRMT5 Cell Target Engagement (TE) Assay
The PRMT5 TE assay is a biomarker assay for identifying compounds that inhibit symmetric dimethylation of arginine (SDMA) of PRMT5 substrates. This assay detects symmetrically dimethylated nuclear proteins using high content imaging technology. Detection of the expression of symmetrically dimethylated nucleo proteins is through a mixture of primary rabbit monoclonal antibodies to SDMA (CST 13222), which in turn recognized by an Alexafluor 488 dye-conjugated anti-rabbit IgG secondary antibody. The IN Cell Analyzer 2200 measures nuclear Alexafluor 488 fluorescent dye intensity that is directly related to the level of expression of symmetrically dimethylated nuclear proteins at the single cell level. Nuclear AF488 dye intensities are compared to the mean value for DMSO treated cells […] to report percent of inhibition for each compound-treated well.
In this assay, the cell potency (EC50) of each compound was determined from a ten point (1:3 serial dilution; top compound concentration of 10000 nM) titration curve using the following outlined procedure. Each well of a BD falcon collagen coated black/clear bottom 384-well plate was seeded with 4000 MCF-7 cells and allowed to attach for 5 hours. Media from cell plate was removed at 0.5 mm above the bottom of the plate and replaced with 30 μL of fresh media containing 1.2× compounds in 0.1% DMSO. Cells were treated for 3 days in 37° C. CO2 incubator. On day 3, cells were fixed with Cytofix, permeabilized with 0.4% Triton-X-100/Cytofix, and washed with D-PBS without Ca/Mg. Cells were blocked with Licor Odessey blocking reagent for one hour at room temperature, followed by incubation with anti-SDMA (1:1000) antibody at 4° C. overnight. 1° antibody was removed, followed by three washings with DPBS without Ca/Mg and 0.05% Tween20. Hoechst (5 μg/ml), Cell Mask deep stain (1:2000) and Alexa488-conjugated goat anti-rabbit IgG (2 μg/mL) was added for 1 hour at room temperature. A final washing step (three washes) was performed before sealing plate for imaging on In Cell Analyzer 2200. Images from analyzer were uploaded to Columbus (at WP) for image analysis. IC50 values were determined by 4 parameters robust fit of percent fluorescence units vs. (Log10) compound concentrations.

[3] = first EC50 of biphasic fit, read-out: Enzyme Methylation Assay (EC50—1)
[4] = second EC50 of biphasic fit, read-out: Enzyme Methylation Assay (EC50—2)

Chain of Full-length (FL)-PRMT5-MEP50 enzyme complex (O14744 whole entry): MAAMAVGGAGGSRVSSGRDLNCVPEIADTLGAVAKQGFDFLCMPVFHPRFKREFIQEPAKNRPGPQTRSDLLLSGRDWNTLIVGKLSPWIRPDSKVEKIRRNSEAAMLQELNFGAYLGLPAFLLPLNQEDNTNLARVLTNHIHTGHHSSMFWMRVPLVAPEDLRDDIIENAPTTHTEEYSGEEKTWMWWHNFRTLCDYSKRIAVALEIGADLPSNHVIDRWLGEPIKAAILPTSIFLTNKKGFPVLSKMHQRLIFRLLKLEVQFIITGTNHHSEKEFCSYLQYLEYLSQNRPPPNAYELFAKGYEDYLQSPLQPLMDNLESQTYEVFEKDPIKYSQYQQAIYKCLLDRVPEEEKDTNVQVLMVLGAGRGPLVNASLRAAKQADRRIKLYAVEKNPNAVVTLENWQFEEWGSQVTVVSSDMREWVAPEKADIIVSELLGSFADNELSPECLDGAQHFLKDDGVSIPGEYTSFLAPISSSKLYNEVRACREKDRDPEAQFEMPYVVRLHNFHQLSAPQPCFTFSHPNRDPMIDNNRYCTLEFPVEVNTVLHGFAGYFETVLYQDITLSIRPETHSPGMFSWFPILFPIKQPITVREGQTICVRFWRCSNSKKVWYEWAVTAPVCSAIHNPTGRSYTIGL
Chain of Full-length (FL)-PRMT5-MEP50 enzyme complex (Q9BQA1 whole entry partner): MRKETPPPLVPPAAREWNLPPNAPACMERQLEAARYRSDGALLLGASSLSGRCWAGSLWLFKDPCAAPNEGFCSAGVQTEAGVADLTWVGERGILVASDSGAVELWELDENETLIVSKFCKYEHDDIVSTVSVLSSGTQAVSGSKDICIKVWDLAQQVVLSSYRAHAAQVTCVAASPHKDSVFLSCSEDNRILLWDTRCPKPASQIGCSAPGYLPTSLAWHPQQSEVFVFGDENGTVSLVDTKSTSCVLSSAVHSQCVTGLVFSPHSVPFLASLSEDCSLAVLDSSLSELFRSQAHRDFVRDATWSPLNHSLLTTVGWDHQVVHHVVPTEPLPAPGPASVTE

## COc1ccc2c(c1)CN[C@H]([C@H](O)CNC(=O)c1cc(NC3COC3)ncn1)C2 [Example 4, N—((R)-2-hydroxy-2-((S)-7-methoxy-1,2,3,4-tetrahydroisoquinolin-3-yl)ethyl)-6-(oxetan-3-ylamino)pyrimidine-4-carboxamide]
[1]; [3]
  pEC50: 7.68
[1]; [4]
  pEC50: 5.07

## CCOc1cc(-c2nnc(C)o2)ccc1C(=O)NC[C@@H](O)[C@@H]1Cc2ccc(OC)cc2CN1 [Example 5, 2-ethoxy-N-{(2R)-2-hydroxy-2-[(3S)-7-methoxy-1,2,3,4-tetrahydroisoquinolin-3-yl]ethyl}-4-(5-methyl-1,3,4-oxadiazol-2-yl)benzamide]
[1]; [3]
  pEC50: 8.70
[1]; [4]
  pEC50: 6.05
[2]
  pEC50: 5.67

## CCOc1cc(-c2nnc(C3CC3)o2)ccc1C(=O)NC[C@@H](O)[C@@H]1Cc2ccc(OC)cc2CN1 [Example 6, 4-(5-cyclopropyl-1,3,4-oxadiazol-2-yl)-2-ethoxy-N-{(2R)-2-hydroxy-2-[(3S)-7-methoxy-1,2,3,4-tetrahydroisoquinolin-3-yl]ethyl}benzamide]
[1]; [3]
  pEC50: 8.70
[1]; [4]
  pEC50: 6.11
[2]
  pEC50: 6.69

## COc1ccc2c(c1)CN[C@H]([C@H](O)CNC(=O)c1ccc(-c3nnc(C(C)(C)C)o3)cc1)C2 [Example 7]
[1]; [3]
  pEC50: 8.52
[1]; [4]
  pEC50: 6.00
[2]
  pEC50: 6.78

## COc1ccc2c(c1)CN[C@H]([C@H](O)CNC(=O)c1ccc(-c3ncc4n3CCCC4)cc1)C2 [Example 8]
[1]; [3]
  pEC50: 9.21
[1]; [4]
  pEC50: 6.65
[2]
  pEC50: 7.10

## COc1ccc2c(c1)CN[C@H]([C@H](O)CNC(=O)c1ccc(-c3ncnn3C3CC3)cc1)C2 [Example 9]
[1]; [3]
  pEC50: 9.25
[1]; [4]
  pEC50: 6.48
[2]
  pEC50: 7.15

## O=C(NC[C@@H](O)[C@@H]1Cc2ccc(C(F)F)cc2CN1)c1ccc(C(=O)N2C3CCC2COC3)cc1 [Example 11]
[1]; Enzyme Methylation Assay (EC50—1, nM), first EC50 of biphasic fit
  EC50: 0.93 nM
[1]; [4]
  pEC50: 6.35
[2]
  pEC50: 6.87

## COc1ccc2c(c1)CN[C@H]([C@H](O)CNC(=O)c1cccnc1)C2 [Example 12]
[1]; [3]
  pEC50: 7.49
[1]; [4]
  pEC50: 4.94
[2]
  pEC50: 5.33

## CCOc1ncccc1C(=O)NC[C@@H](O)[C@@H]1Cc2ccc(OC)cc2CN1 [Example 13]
[1]; [3]
  pEC50: 7.68
[1]; [4]
  pEC50: 5.09
[2]
  pEC50: 5.33

## COc1ccc2c(c1)CN[C@H]([C@H](O)CNC(=O)c1ccccc1Cl)C2 [Example 14]
[1]; [3]
  pEC50: 7.92
[1]; [4]
  pEC50: 5.37
[2]
  pEC50: 5.49

## CC(=O)N1CCC(Nc2cc(C(=O)NC[C@@H](O)[C@@H]3Cc4ccc(C(F)(F)F)cc4CN3)ncn2)CC1 [Example 15]
[1]; [3]
  pEC50: 7.64
[1]; [4]
  pEC50: 5.14
[2]
  pEC50: 5.66

## CCc1ccc2c(c1)CN[C@H]([C@H](O)CNC(=O)c1cc(NC3CCN(C(C)=O)CC3)ncn1)C2 [Example 16]
[1]; [3]
  pEC50: 8.15
[1]; [4]
  pEC50: 5.43
[2]
  pEC50: 6.07

## CC(=O)N1CCC(Nc2cc(C(=O)NC[C@@H](O)[C@@H]3Cc4ccc(C#N)cc4CN3)ncn2)CC1 [Example 17]
[1]; [3]
  pEC50: 6.74
[1]; [4]
  pEC50: 4.46
[2]
  pEC50: 5.00

## COC(=O)N1CCC(Nc2cc(C(=O)NC[C@@H](O)[C@@H]3Cc4ccc(OC)cc4CN3)ccn2)CC1 [Example 18]
[1]; [3]
  pEC50: 9.10
[1]; [4]
  pEC50: 6.73
[2]
  pEC50: 7.72
